Data published in patent US20260166021A1, “POLYMORPHIC FORMS OF A SOLUBLE EPOXIDE HYDROLASE INHIBITOR AND FORMULATIONS THEREOF” (EicOsis, LLC, priority 2022, published 2026).

Key:
[1] = Differential scanning calorimetry (DSC): heat of fusion, thermal events; type: physicochemical
Protocol: Differential scanning calorimetry analyses were performed on each sample “as is.” Unless otherwise specified, samples were weighed in an aluminum pan, covered with a pierced lid, and then crimped and analyzed from 30-300° C. ramped at 10° C./min.
The DSC data were used to determine the heat of fusion for Forms A, B, D, and F, based on their heats of fusion as measured during conversion from Form C.

[2] = Particle size analysis (Malvern particle sizer, dry method; optical microscopy); type: physicochemical
Protocol: Particle size was first analyzed with optical microscopy.
Particle size was also analyzed with a dry-method using a Malvern 300 particle sizer equipped with a standard energy venturi and utilizing 2.5 bar, 3.0 bar, and 3.5 bar air pressure. […] One possible explanation is that the insufficient energy was provided to break up particle agglomerations.
Based on these findings, particle size analysis was repeated at 2.5, 3.0, and 3.5 bar using a higher energy venturi to ensure the break-up of the potential agglomerates. The detailed particle sizing data using high-energy venturi are summarized in TABLE 26 and in FIGS. 114-119, with FIGS. 114-116 corresponding to 2.5, 3.0, and 3.5 bar analyses of unmilled Form D and FIGS. 117-119 corresponding to 2.5, 3.0, and 3.5 bar analyses of micronized Form D, respectively. While the data remained bimodal, indicating incomplete break-up of particle agglomerates, the D90 of micronized material measured below 6 μm, in closer agreement with the optical analyses.

[3] = milled (micronized), 2.5 bar air pressure, high-energy venturi
[4] = milled (micronized), 2.5 bar air pressure, standard energy venturi
[5] = milled (micronized), 3.0 bar air pressure, high-energy venturi
[6] = milled (micronized), 3.0 bar air pressure, standard energy venturi
[7] = milled (micronized), 3.5 bar air pressure, high-energy venturi
[8] = milled (micronized), 3.5 bar air pressure, standard energy venturi
[9] = unmilled, 2.5 bar air pressure, high-energy venturi
[10] = unmilled, 2.5 bar air pressure, standard energy venturi
[11] = unmilled, 3.0 bar air pressure, high-energy venturi
[12] = unmilled, 3.0 bar air pressure, standard energy venturi
[13] = unmilled, 3.5 bar air pressure, high-energy venturi
[14] = unmilled, 3.5 bar air pressure, standard energy venturi

SMILES: CC[C@H](C)C(=O)N1CCC(NC(=O)Nc2ccc(OC(F)(F)F)c(F)c2)CC1 [Form D, (S)-1-(3-fluoro-4-(trifluoromethoxy)phenyl)-3-(1-(2-methylbutanoyl)piperidin-4-yl)urea]
- DSC Thermal Events, Endo: melting of pattern D [1]: 143 °C melting of pattern D
- stability rank among Forms A, B, D and F ([1]; DSC, TABLE 10): highest stability
- thermodynamic stability (from heat of fusion) ([1]; DSC, TABLE 10): thermodynamically stable
- Heat of fusion ([1]; DSC, scaled-up polymorphs, measured during conversion from Form C): 67.51
- D10 [2, 3]: 0.46 μm
- D50 [2, 3]: 1.52 μm
- D90 [2, 3]: 5.80 μm
- PSD Modal [2, 3]: Bimodal
- D10 [2, 4]: 0.56 μm
- D50 [2, 4]: 1.85 μm
- D90 [2, 4]: 45.9 μm
- PSD Modal [2, 4]: Bimodal
- D10 [2, 5]: 0.46 μm
- D50 [2, 5]: 1.47 μm
- D90 [2, 5]: 5.42 μm
- PSD Modal [2, 5]: Bimodal
- D10 [2, 6]: 0.55 μm
- D50 [2, 6]: 1.80 μm
- D90 [2, 6]: 47.4 μm
- PSD Modal [2, 6]: Bimodal
- D10 [2, 7]: 0.44 μm
- D50 [2, 7]: 1.51 μm
- D90 [2, 7]: 5.44 μm
- PSD Modal [2, 7]: Bimodal
- D10 [2, 8]: 0.54 μm
- D50 [2, 8]: 1.69 μm
- D90 [2, 8]: 29.4 μm
- PSD Modal [2, 8]: Bimodal
- D10 [2, 9]: 5.24 μm
- D50 [2, 9]: 22.0 μm
- D90 [2, 9]: 55.8 μm
- PSD Modal [2, 9]: Bimodal
- D10 [2, 10]: 8.66 μm
- D50 [2, 10]: 34.5 μm
- D90 [2, 10]: 79.3 μm
- PSD Modal [2, 10]: Unimodal
- D10 [2, 11]: 4.47 μm
- D50 [2, 11]: 20.1 μm
- D90 [2, 11]: 54.8 μm
- PSD Modal [2, 11]: Bimodal
- D10 [2, 12]: 8.26 μm
- D50 [2, 12]: 35.0 μm
- D90 [2, 12]: 91.2 μm
- PSD Modal [2, 12]: Unimodal
- D10 [2, 13]: 2.84 μm
- D50 [2, 13]: 17.2 μm
- D90 [2, 13]: 51.1 μm
- PSD Modal [2, 13]: Bimodal
- D10 [2, 14]: 7.37 μm
- D50 [2, 14]: 33.1 μm
- D90 [2, 14]: 78.6 μm
- PSD Modal [2, 14]: Unimodal
